Marks after values point to notes of the source that are not given here.
Assays:
MAH 3393 biofilm = test: Amikacin with short-chain fatty acids on biofilm of lung isolate MAH 3393; type: cell-based; conditions: amikacin concentration: 4 mg/ml; untreated 1.0 +/− 0.8 × 10^8
[1] = test system: MAH (strain 104) in established biofilms; test: Treatment of established MAH biofilms with antibiotics and metabolites (CFU); type: cell-based, Mycobacterium avium subsp hominissuis 104 (MAH104); conditions: for killing capacity of clarithromycin: established M. avium 104 biofilms, 72 hours, FIG. 4A-D; for CFU/ml at 14 days: established biofilms, clarithromycin 16 μg/ml, amikacin 4 μg/ml, 0.05% propionic or butyric acid, 0.2% glycerol, none 4.2 +/− 0.5 × 10^8
Protocol: To assess the antibiotic tolerance of MAH biofilms to amikacin (4 μg/ml) and clarithromycin (16 μg/ml), biofilms were formed for 14 days as described herein. […] As a negative control, biofilms were incubated only with non-supplemented 7H9 without any antibiotics. […] Subsequently, 100 μl of 0.02% of Triton X-100 (final concentration 0.01%) was added to the established biofilms to mix, dilute and perform CFU analysis with the entire population of biofilms (attached and unattached).
Mycobacteria biofilms were first established and then treated or not treated with antibiotics. In parallel, biofilms were also co-treated with antibiotics and the targeted metabolites.

MAH 3388 biofilm = test: Amikacin with short-chain fatty acids on biofilm of lung isolate MAH 3388; type: cell-based; conditions: for CFU/mL, MAH 3388: amikacin concentration: 4 mg/ml, untreated 9.4 +/− 0.2 × 10^7; for activity to potentiate Amikacin activity: biofilms of MAH 3388
Protocol: As a negative control, biofilms were incubated only with non-supplemented 7H9 without any antibiotics. […] Subsequently, 100 μl of 0.02% of Triton X-100 (final concentration 0.01%) was added to the established biofilms to mix, dilute and perform CFU analysis with the entire population of biofilms (attached and unattached).
Biofilms were established from an MAH strain isolated from the lungs of a patient (MAH 3388).

MAH104 biofilms = type: cell-based, Mycobacterium avium subsp hominissuis 104 (MAH104); conditions: O.D.590 nm, biofilm vs planktonic
Protocol: Metabolic phenotype study was performed with planktonic and biofilm cultures using the 96-well plates PM1 and PM2A (BIOLOG™, Hayward, Calif.). The assays with planktonic cells and biofilms were made at the same time. Each plate contains carbon substrates and one negative control well, in which the bacteria is tested without any substrate. The tests with planktonic and biofilm cultures were performed at the same time and the culture inoculum have the same number of passages. […] The experiments were made as an end-point assay.
The cultures of biofilms were established for 7 days in regular polystyrene 96 well plates, not in PM Biolog plates, as described above with a minor difference. […] (total of 14 days of biofilm incubated at 37° C.). To obtain spectrophotometric measurements from biofilm cultures (O.D.590 nm), the plate was centrifuged for 20 minutes at 3500 rpm at 20° C., which reduce bacteria interference with the readings, and biofilm supernatant was transferred to a new 96 well plates for O.D.590 nm measurement.
Experiments were performed three times as an end-point assay. If planktonic and/or biofilm cultures were able to metabolize a specific metabolite substrate, electrons from NADH reduce the Redox dye in an irreversible reaction that generates a purple color in the PM plate wells. The signal (+) and (−) indicates, respectively, whether a purple color was produced or not. Abiotic reductions of the Redox dye were assessed through adding bacteria-free GN/GP-IF-0a fluid in the wells. Negative control corresponds to the wells without any metabolic substrate.

Compound | CFU/mL, MAH 3393 (MAH 3393 biofilm) | killing capacity of clarithromycin [1] | CFU/ml at 14 days [1] | CFU/mL, MAH 3388 (MAH 3388 biofilm) | activity to potentiate Amikacin activity (MAH 3388 biofilm) | lower capacity of biofilms to use the substrate compared with planktonic cultures (MAH104 biofilms) [fold]
CCCC(=O)O [Butyric acid] | 6.2 +/− 0.7 × 10^7 CFU/mL | increase | 3.4 +/− 0.6 × 10^6* (1) CFU/ml | 9.7 +/− 0.6 × 10^7 CFU/mL | confirmed | –
OCC(O)CO [Glycerol] | – | increase | 1.1 +/− 0.3 × 10^9* CFU/ml | – | – | 11.14
CCC(=O)O [Propionic acid] | 1.7 +/− 0.4 × 10^7 CFU/mL | increase | 5.5 +/− 0.4 × 10^6*(1) CFU/ml | 9.6 +/− 0.4 × 10^7 CFU/mL | confirmed | 5.49
